IC50 data for two molecules are collected here from BindingDB's records for patent US12503484 (Seismic Pharmaceuticals, 2025).

The test addresses Sodium/potassium-transporting ATPase subunit alpha-1 (Canis lupus familiaris, UniProt P50997). The experiment in a line: Inhibition of Dog Renal Na+/K+ ATPase Activity.

Protocol: Increasing concentrations of the standard ouabain, or tested compound, were incubated with 0.3 μg of purified dog kidney enzyme for 10 min at 37° C. in 120 μl final volume of a medium containing 140 mM NaCl, 3 mM MgCl2, 50 mM Hepes-Tris, 3 mM ATP, pH 7.5. Then, 10 μl of a solution containing 10 mM KCl and 20 nCi of 32P-ATP (3-10 Ci/mmol, Perkin Elmer) were added. The reaction was allowed to continue for 15 min at 37° C. and then stopped by acidification with 20% v/v ice-cold perchloric acid. 32P was separated by centrifugation with activated Charcoal (Norit A, Serva) and the radioactivity was counted. The inhibitory activity was expressed as percent of the control samples carried out in the absence of ouabain, or tested compound.

The molecule `CCCCC(C(=O)O)C1CC[C@@]2(C)C(C1)[C@H](O)C[C@@H]1[C@@H]2CC[C@]2(C)C(=O)CC[C@@H]12` (some centres not stated) [US12503484, Compound CVie219] gave an IC50 of over 100 µM.
Then `CCCC(=O)OCCC1CC[C@@]2(C)C(C1)[C@@H](O)C[C@@H]1[C@@H]2CC[C@]2(C)C(=O)CC[C@@H]12` (some centres not stated) [US12503484, Compound CVie217], with over 100 µM.

By IC50 is commonly meant the concentration that gives 50% inhibition.
